{"source": "patent US20070161542A1", "about": "“Ptb1b photoprobes” (priority 2003, published 2007)", "target": "T1, PTP1B in HEPG2 whole cells (Homo sapiens, UniProt P18031)", "T1 construct": "Labeling of Endogenous PTP1B in HEPG2 Cell Lysate; endogenous in cells; host or cells: HepG2 (human hepatoma, ATCC)", "T1 sequence (P18031 1-435)": "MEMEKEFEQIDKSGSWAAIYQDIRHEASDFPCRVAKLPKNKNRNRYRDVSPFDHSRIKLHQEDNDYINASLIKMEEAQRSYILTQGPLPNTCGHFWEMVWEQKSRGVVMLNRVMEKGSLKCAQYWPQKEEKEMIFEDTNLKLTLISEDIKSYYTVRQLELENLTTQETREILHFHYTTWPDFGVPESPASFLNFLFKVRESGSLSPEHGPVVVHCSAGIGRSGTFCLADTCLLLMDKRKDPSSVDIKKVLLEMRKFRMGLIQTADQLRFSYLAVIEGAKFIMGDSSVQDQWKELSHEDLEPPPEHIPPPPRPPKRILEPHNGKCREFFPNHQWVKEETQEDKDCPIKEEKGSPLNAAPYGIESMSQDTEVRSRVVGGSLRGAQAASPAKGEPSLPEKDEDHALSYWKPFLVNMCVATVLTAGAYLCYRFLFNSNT", "experiment": "Labeling of endogenous PTP1B in HEPG2 whole cells", "assay_type": "cell-based", "conditions": "mass balance on total counts, 5 nM probe", "method": "Human hepatoma cells (HepG2) were obtained from American Type Culture Collection and maintained in regular MEM containing 10% FBS and 1% antibiotics at 37° C., 5% CO2. For photoprobe experiments, cells (2×10^4) were grown until 80% confluence in 6-well plates and serum starved for 14 hours by incubating in MEM with 1% antibiotics without FBS.\nHEPG2 cells were grown to ˜80% confluency in 6-well dishes. Media was removed and washed twice with Hanks-Hepes buffer (15 mM Hepes). For HepG2 lysate studies, the cells were lysed on ice for 15 minutes using 1 ml lysate buffer (50 mM Tris pH 7.4, 150 mM NaCl, 1% Triton X-100, 5 mM EDTA, 5 mM DTT, Complete™ protease inhibitor tablet). […] The protein concentration of the lysates was determined by the method of Lowry (detergent compatible).\nPTP1B was immunoprecipitated from HepG2 cell lysates (1 ml of 1 mg/ml) using 3.5 ug of anti-PTP1B antibody (BDT) overnight at 4° C. with rotation. […] For autoradiogram detection of radioactivity, the gels were dried and exposed to BioMax MS film with an intensifying screen at −80° C. Protein bands were quantified using a scanning densitometer (Bio-Rad).\nThe compound of Example 1 at various concentrations was incubated with HEPG2 whole cells for 30 min and was irradiated on ice for 15 min. The cells were then lysed, and labeled PTP1B was measured after immunoprecipitation. […]", "data": [{"smiles": "NC(=O)[C@H](Cc1ccc(C(F)(F)P(=O)(O)O)c(Br)c1)NC(=O)[C@H](Cc1ccc(C(F)(F)P(=O)(O)O)c(Br)c1)NC(=O)c1cc(I)cc(C2(C(F)(F)F)N=N2)c1", "note": "[Example 1, Tetraamnionium 3-bromo-4-(difluoro(phosphonato)methyl)-N-(3-iodo-5-(3-(trifluoromethyl)-3H-diaziren-3-yl)benzoyl)-L-phenylalanyl-3-bromo-4-(difluoro(phosphonato)methyl)-L-phenylalaninamide]", "values": [{"measurement": "cell permeability (share of probe associated with the cell)", "value": "around 10%"}]}]}
